Experimental data published in patent publication US10272081B2, “SHIP1 modulators and methods related thereto” (Aquinox Pharmaceuticals (Canada) Inc., priority 2013, dated 2019).

biological target: T1, His-hSHIP1 enzyme (Homo sapiens, UniProt Q92835); test: His-hSHIP1 activity, approach 2 (ratio of initial velocities IP4 25/IP4 250); format: biochemical; set-up: key: +++: higher than reference or reference - 15%; ++: reference - 16% to reference - 30%; +: reference - 31% or lower; settings: ratio of initial velocities IP4 25/IP4 250 versus reference SHIP1 activator; asterisk in Table 2
T1 construct: His
T1 sequence (Q92835 1-1189): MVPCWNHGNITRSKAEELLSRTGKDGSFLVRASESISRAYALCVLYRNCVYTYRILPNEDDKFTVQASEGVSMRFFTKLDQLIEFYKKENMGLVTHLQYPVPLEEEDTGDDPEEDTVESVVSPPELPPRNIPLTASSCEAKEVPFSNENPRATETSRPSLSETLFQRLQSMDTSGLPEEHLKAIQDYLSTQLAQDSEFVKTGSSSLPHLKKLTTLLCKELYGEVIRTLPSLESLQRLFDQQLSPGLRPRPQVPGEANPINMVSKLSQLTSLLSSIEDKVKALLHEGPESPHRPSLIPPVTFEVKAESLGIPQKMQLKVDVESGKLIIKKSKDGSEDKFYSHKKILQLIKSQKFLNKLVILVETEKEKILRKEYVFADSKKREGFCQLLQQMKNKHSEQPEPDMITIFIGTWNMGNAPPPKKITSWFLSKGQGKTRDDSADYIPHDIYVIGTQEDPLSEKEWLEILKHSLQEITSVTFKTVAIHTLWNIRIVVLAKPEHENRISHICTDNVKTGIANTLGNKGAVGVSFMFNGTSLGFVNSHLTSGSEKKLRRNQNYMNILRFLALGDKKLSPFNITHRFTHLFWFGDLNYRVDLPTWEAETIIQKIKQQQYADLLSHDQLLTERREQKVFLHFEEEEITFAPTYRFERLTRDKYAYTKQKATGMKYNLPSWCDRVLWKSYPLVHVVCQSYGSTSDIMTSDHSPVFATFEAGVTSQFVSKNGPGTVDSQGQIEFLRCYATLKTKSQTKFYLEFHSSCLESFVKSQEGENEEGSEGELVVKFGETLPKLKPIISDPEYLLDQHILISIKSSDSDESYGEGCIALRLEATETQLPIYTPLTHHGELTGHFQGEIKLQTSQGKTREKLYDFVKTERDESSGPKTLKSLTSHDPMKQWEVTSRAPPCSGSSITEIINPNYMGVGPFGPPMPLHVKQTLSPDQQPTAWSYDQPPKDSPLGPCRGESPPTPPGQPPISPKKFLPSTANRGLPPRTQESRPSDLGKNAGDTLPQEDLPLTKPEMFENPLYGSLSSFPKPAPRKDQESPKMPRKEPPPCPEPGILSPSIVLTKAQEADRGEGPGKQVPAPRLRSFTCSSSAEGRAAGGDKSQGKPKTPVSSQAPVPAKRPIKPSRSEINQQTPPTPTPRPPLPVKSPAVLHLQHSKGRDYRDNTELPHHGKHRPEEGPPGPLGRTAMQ
Procedure: (§1) Test compounds are dissolved in 95% ethanol to form stock solutions. Before screening, the stock solutions are diluted with Phosphatase Assay Buffer (20 mM Tris-HCL, 10 mM MgCl2 pH 7.5, 0.02% Tween 20) to form working assay solutions that contain 10% ethanol. The assay is carried out on 96-well microtiter plates using a modified procedure of that reported by Ong et al., Blood 110, 1942-1949, 2007 and Yang et al., Org Lett 7, 1073-1076, 2005, both of which references are incorporated herein by reference in their entirety.
In the second approach, a master mix is prepared that contains […] (0.4-1.6 ng/μL final), 25 μL of the substrate, IP4 (25 or 250 μM final), and 50 μL of test compound in 3.3% ethanol ([…]). Control blanks are also prepared by replacing His-hSHIP1 enzyme, IP4, or test compounds with Phosphate Assay Buffer. […] Each reaction component is preincubated at 37° C. for 30 min before adding to a 96-well microtiter plate. The master mix is then incubated at 37° C. At time 0, 20, 25 and 30 min, 25 μL of the master mix is removed and transferred to a new 96-well microtiter plate, to which 100 μL of Biomol Green Reagent is added to stop the reaction. After incubating the mixture for 20 min at room temperature for color development, the absorbance is read with SpectraMax Plus 96-well plate reader at a wavelength of 650 nm. Phosphate released is plotted against time to calculate the initial velocities (i.e., slope of the graph) at each IP4 concentration. The initial velocities are baseline corrected and the ratio of initial velocities (IP425/IP4250) is calculated and used to rate the test compounds.

Row | Compound | Scoring, Approach 2 (Initial velocity Ratio)
1 | COc1cc(OC)cc(C(O)[C@@H]2[C@@]3(C)CCCC(C)(C)[C@@H]3CC[C@@]2(C)O)c1 (stereo partly drawn) [Compound No. 49, (1S,2R,4aS,8aS)-1-[(3,5-dimethoxyphenyl)(hydroxy)methyl]-2,5,5,8a-tetramethyl-decahydronaphthalen-2-ol] | +++
2 | C[C@@H]1[C@H](NC(=O)Nc2cccnc2)C[C@H]2C(C)(C)CCC[C@]2(C)[C@H]1C(=O)c1cc(O)cc(O)c1 [Compound No. 118, 3-[(2R,3S,4S,4aS,8aS)-4-[(3,5-dihydroxyphenyl)carbonyl]-3,4a,8,8-tetramethyl-decahydronaphthalen-2-yl]-1-(pyridin-3-yl)urea] | +++
3 | C[C@@H]1[C@H](NCc2cnc[nH]2)C[C@H]2C(C)(C)CCC[C@]2(C)[C@H]1C(=O)c1cc(O)cc(O)c1 [Compound No. 119, 5-{[(1S,2S,3R,4aS,8aS)-3-[(1H-imidazol-5-ylmethyl)amino]-2,5,5,8a-tetramethyl-decahydronaphthalen-1-yl]carbonyl}benzene-1,3-diol] | ++
4 | Cc1cc(O)cc(C(=O)[C@H]2[C@H](C)[C@H](N)C[C@H]3C(C)(C)CCC[C@]23C)c1 [Compound No. 136, 3-{[(1S,2S,3R,4aS,8aS)-3-amino-2,5,5,8a-tetramethyl-decahydronaphthalen-1-yl]carbonyl}-5-methylphenol] | ++
5 | Cc1cc(O)cc(C(=O)[C@H]2[C@H](C)[C@H](NCc3cnc[nH]3)C[C@H]3C(C)(C)CCC[C@]23C)c1 [Compound No. 137, 3-{[(1S,2S,3R,4aS,8aS)-3-[(1H-imidazol-5-ylmethyl)amino]-2,5,5,8a-tetramethyl-decahydronaphthalen-1-yl]carbonyl}-5-methylphenol] | ++
6 | Cc1cc(O)cc(C(=O)[C@H]2[C@H](C)[C@H](NC(=O)Nc3cccnc3)C[C@H]3C(C)(C)CCC[C@]23C)c1 [Compound No. 138, 3-[(2R,3S,4S,4aS,8aS)-4-[(3-hydroxy-5-methylphenyl)carbonyl]-3,4a,8,8-tetramethyl-decahydronaphthalen-2-yl]-1-(pyridin-3-yl)urea] | ++
7 | CC(=O)N[C@@H]1C[C@H]2C(C)(C)CCC[C@]2(C)[C@@H](C(=O)c2cc(C)cc(O)c2)[C@@H]1C [Compound No. 139, N-[(2R,3S,4S,4aS,8aS)-4-[(3-hydroxy-5-methylphenyl)carbonyl]-3,4a,8,8-tetramethyl-decahydronaphthalen-2-yl]acetamide] | ++
8 | C=C1[C@H](C(=O)c2cc(OC)cc(OC)c2)[C@@]2(C)CCCC(C)(C)[C@@H]2C[C@H]1O [Compound No. 141, (2R,4R,4aS,8aS)-4-[(3,5-dimethoxyphenyl)carbonyl]-4a,8,8-trimethyl-3-methylidene-decahydronaphthalen-2-ol] | +
9 | COc1cc(OC)cc(C(=O)C2=C(C)[C@H](O)C[C@H]3C(C)(C)CCC[C@]23C)c1 [Compound No. 142, (2R,4aS,8aS)-4-[(3,5-dimethoxyphenyl)carbonyl]-3,4a,8,8-tetramethyl-1,2,4a,5,6,7,8,8a-octahydronaphthalen-2-ol] | ++
10 | C[C@H]1CC[C@H]2C(C)(C)CCC[C@]2(C)[C@H]1CC(=O)Nc1cc(O)cc(O)c1 [Compound No. 149, 2-[(1S,2S,4aS,8aR)-2,5,5,8a-tetramethyl-decahydronaphthalen-1-yl]-N-(3,5-dihydroxyphenyl)acetamide] | ++
11 | CC1(C)CCC[C@]2(C)[C@@H](Cc3cc(O)cc(O)c3)[C@@H](C(=O)O)CC[C@@H]12 [Compound No. 157, (1S,2S,4aS,8aR)-1-[(3,5-dihydroxyphenyl)methyl]-5,5,8a-trimethyl-decahydronaphthalene-2-carboxylic acid] | ++
12 | COc1cc(OC)cc(S(=O)(=O)C[C@H]2C(C)C(O)C[C@H]3C(C)(C)CCC[C@]23C)c1 (stereo partly drawn) [Compound No. 173, (4S,4aS,8aS)-4-{[(3,5-dimethoxybenzene)sulfonyl]methyl}-3,4a,8,8-tetramethyl-decahydronaphthalen-2-ol] | +++
13 | Cc1cc(O)cc(C(=O)[C@H]2[C@H](C)[C@H](NC(=N)N)C[C@H]3C(C)(C)CCC[C@]23C)c1 [Compound No. 175, 1-[(2R,3S,4S,4aS,8aS)-4-[(3-hydroxy-5-methylphenyl)carbonyl]-3,4a,8,8-tetramethyl-decahydronaphthalen-2-yl]guanidine] | ++
14 | Cc1cc(O)cc(C(=O)[C@H]2[C@H](C)[C@H](NS(C)(=O)=O)C[C@H]3C(C)(C)CCC[C@]23C)c1 [Compound No. 176, N-[(2R,3S,4S,4aS,8aS)-4-[(3-hydroxy-5-methylphenyl)carbonyl]-3,4a,8,8-tetramethyl-decahydronaphthalen-2-yl]methanesulfonamide] | ++

biological target: T1, His-hSHIP1 enzyme; test: His-hSHIP1 activity, approach 1 (phosphate release from IP4, Biomol Green); format: biochemical; settings: activation of His-hSHIP1; IP4 50 μM; test compound 0-300 μM; no asterisk in Table 2
Procedure: as §1
Data were generated by one of two variant methods. Test compounds are screened by one of two approaches described as follows. In the first approach, each reaction contains 5 μL of His-hSHIP1 enzyme (5-20 ng), 10 μL of the substrate, 1,3,4,5-inositol tetrakisphosphate (IP4; 50 μM final), 5 μL of Phosphatase Assay Buffer, and 5 µL of test compound at various concentrations in 10% ethanol (0-300 μM final). Control blanks are also prepared by replacing His-hSHIP1 enzyme, IP4, or test compounds with Phosphatase Assay Buffer. After adding the reaction components in a 96-well microtiter plate on ice, the reaction is mixed by briefly shaking the plate vigorously. The reaction is then incubated at 37° C. for 15 min with gentle shaking followed by addition of 100 μL of Biomol Green Reagent (BIOMOL, Pa., USA) to terminate the reaction. The free phosphate released from IP4 by His-hSHIP1 binds to the Biomol Green Reagent, which turns the dye to green color. After incubating the mixture for 20 min at room temperature for color development, the absorbance is read with SpectraMax Plus 96-well plate reader (Molecular Devices, Sunnyvale, Calif., USA) at a wavelength of 650 nm.

Row | Compound | Scoring, Approach 1 (% increase relative to background)
15 | C[C@@H]1[C@H](N)C[C@H]2C(C)(C)CCC[C@]2(C)[C@H]1C(=O)c1cc(O)cc(O)c1 [Compound No. 56, 5-{[(1S,2S,3R,4aS,8aS)-3-amino-2,5,5,8a-tetramethyl-decahydronaphthalen-1-yl]carbonyl}benzene-1,3-diol] | + (0 < x < 50)
16 | C[C@H]1CC[C@H]2C(C)(C)CCC[C@]2(C)[C@H]1CCc1cc(O)cc(O)c1 [Compound No. 62, 5-{2-[(1S,2S,4aS,8aR)-2,5,5,8a-tetramethyl-decahydronaphthalen-1-yl]ethyl}benzene-1,3-diol] | +++ (x ≥65)
17 | Cc1cc(O)cc(C(=O)[C@H]2[C@H](C)C(C(N)=O)C[C@H]3C(C)(C)CCC[C@]23C)c1 (stereo partly drawn) [Compound No. 65, (3S,4S,4aS,8aS)-4-[(3-hydroxy-5-methylphenyl)carbonyl]-3,4a,8,8-tetramethyl-decahydronaphthalene-2-carboxamide] | +++ (x ≥65)
